These results are taken from patent publication US9855226B2 (Relmada Therapeutics, Inc., priority 2012, dated 2018).

Data set [1] has as its system patients with chronic pain.
Data set [2] concerns patients with chronic pain. Conditions: average of eight patients.
The target in data set [3] is T1, N-methyl-D-aspartate (NMDA) receptor (Rattus norvegicus, UniProt P35439).
T1 construct: N-methyl-D-aspartate (NMDA) receptor in rat forebrain and spinal cord
Conditions: cited from earlier work.

Data set [4] has as its system relatively refractory population with major depression. The conditions noted are these: single dose; cited from earlier work.
Data set [5] has as its system subjects with major depression. The conditions noted are these: single dose, 8 subjects; cited from earlier work.
In the next data set the test system is male Wistar rats. Conditions: single dose; cited from earlier work.
The mark [6] stands for this setting: 8 patients that completed and 1 removed, 40 mg PO q12 hr.
[7] abbreviates: day 12 of d-methadone 40 mg every 12 hours.

Take `CCC(=O)C(C[C@H](C)N(C)C)(c1ccccc1)c1ccccc1` [d-methadone]: the Tolerability entry in data set [1] (40 mg PO Q 12 hours for 12 days, patients with chronic pain and multiple co morbidities) was “well tolerated”. In data set [1] (setting [6]), the “Back pain: # of patients” value turned out to be 1, the “Headache (first line): # of patients” value is reported as 1, the “Headache (second line): # of patients” value is 1 and the “Somnolence (Neurology): # of patients” value turned out to be 2. The “Tremor (Neurology): # of patients” value in data set [1] (setting [6]) is 1. Also, in data set [1] (CTCAE v3.0), the “Back pain: Attribution” value was 3, the “Back pain: Grade (1-5)” value is on record as 1, the “Headache (first line): Attribution” value was 3 and the “Headache (first line): Grade (1-5)” value was found to be 1. In data set [1] (CTCAE v3.0), the “Headache (second line): Attribution” value amounted to 4, the “Headache (second line): Grade (1-5)” value was 1, the “Somnolence (Neurology): Attribution” value stood at 3 and the “Somnolence (Neurology): Grade (1-5)” value was determined as 2. In data set [1] (CTCAE v3.0), the “Tremor (Neurology): Attribution” value came out at 3 and the “Tremor (Neurology): Grade (1-5)” value is 1. In addition, the “Patients' perception of analgesia” value in data set [1] (very sick patients with severe cancer pain) is “recognized it as an effective analgesic”. In addition, in data set [2] (baseline (day 1)), the “Anxiety, Baseline, average score” value was 2.5; the “Drowsiness, Baseline, average score” value was determined as 4.1; the “Pain, Baseline, average score” value is reported as 4.1; the “Tiredness, Baseline, average score” value was determined as 5.9. In addition, in data set [2] (setting [7]), the “Anxiety, Day 12, average score” value came out at 1.5; the “Drowsiness, Day 12, average score” value was 2.9; the “Pain, Day 12, average score” value was 4.1; the “Tiredness, Day 12, average score” value is given as 3.6. Moreover, the NMDA receptor antagonism entry in data set [3] is reported as “NMDA antagonists”.

As for `CNC1(c2ccccc2Cl)CCCCC1=O` (stereo not shown) [ketamine], in data set [4], the “Duration of antidepressant response (relatively sustained)” value is reported as 1 week and the “Time to antidepressant response (rapid)” value is 110 min. In addition, the Antidepressant effect result in data set [5] was “rapid and short-lived antidepressant effect”. For the same molecule, the “Duration of interference with the induction of behavioral despair” value in the data set on male Wistar rats is recorded as “up to 10 days”.

With `CCC(=O)C(C[C@@H](C)N(C)C)(c1ccccc1)c1ccccc1` [l-methadone, reference compound], the NMDA receptor antagonism result in data set [3] is on record as “NMDA antagonists”.
